In patent publication US20250034216A1, “STEREOSELECTIVE COVALENT LIGANDS FOR ONCOGENIC AND IMMUNOLOGICAL PROTEINS” (The Scripps Research Institute, priority 2021, published 2025):

Legend:
Experiment in all cases: IA-DTB cysteine engagement
Type in all cases: binding
Settings in all cases: 22Rv1 cells, 20 μM probe, 1 h, relative to DMSO
[1] = target: T1, LMNA_C570 (Homo sapiens, UniProt P02545)
T1 construct: endogenous in cells; host or cells: 22Rv1
T1 sequence (P02545 1-664): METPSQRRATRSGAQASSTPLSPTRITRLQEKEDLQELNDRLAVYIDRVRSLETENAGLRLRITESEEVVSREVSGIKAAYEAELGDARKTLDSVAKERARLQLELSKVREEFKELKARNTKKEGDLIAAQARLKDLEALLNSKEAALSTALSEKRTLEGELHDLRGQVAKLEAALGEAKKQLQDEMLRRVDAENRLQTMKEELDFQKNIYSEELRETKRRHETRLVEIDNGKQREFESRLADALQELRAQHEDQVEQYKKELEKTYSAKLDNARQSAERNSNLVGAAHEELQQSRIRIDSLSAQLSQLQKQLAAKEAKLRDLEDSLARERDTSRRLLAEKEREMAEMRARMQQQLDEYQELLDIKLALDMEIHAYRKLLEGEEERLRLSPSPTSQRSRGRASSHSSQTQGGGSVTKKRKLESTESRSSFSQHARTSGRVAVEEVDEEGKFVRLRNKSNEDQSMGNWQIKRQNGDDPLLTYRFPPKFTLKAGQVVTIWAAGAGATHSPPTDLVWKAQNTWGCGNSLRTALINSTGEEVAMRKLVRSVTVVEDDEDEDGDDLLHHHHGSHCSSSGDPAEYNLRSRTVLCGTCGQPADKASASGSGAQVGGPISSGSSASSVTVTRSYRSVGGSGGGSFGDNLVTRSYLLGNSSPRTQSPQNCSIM
Summary of the method: (§1)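 Read-out is TMT-based cysteine engagement, expressed as each reporter ion intensity divided by the average of the DMSO channels. Before that, probe-treated cell lysates were capped with IA-DTB, digested, enriched on streptavidin and TMT-tagged. PSMs with DMSO summed intensity <10,000 or DMSO CV >0.5 were excluded.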

[2] = target: T2, GPAT4_C325 (Homo sapiens, UniProt Q86UL3)
T2 construct: endogenous in cells; host or cells: 22Rv1
T2 sequence (Q86UL3 38-456): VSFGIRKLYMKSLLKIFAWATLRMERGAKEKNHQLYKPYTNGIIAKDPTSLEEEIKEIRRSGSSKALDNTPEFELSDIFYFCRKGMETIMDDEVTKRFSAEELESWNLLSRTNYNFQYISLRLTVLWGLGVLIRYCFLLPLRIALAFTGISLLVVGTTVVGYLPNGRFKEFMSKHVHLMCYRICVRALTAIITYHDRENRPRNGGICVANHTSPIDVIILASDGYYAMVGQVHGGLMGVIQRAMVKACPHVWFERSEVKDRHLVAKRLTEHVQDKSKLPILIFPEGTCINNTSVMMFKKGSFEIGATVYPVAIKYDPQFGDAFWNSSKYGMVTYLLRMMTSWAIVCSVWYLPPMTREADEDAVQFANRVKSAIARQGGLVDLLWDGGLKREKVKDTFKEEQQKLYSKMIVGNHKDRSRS
Summary of the method: as §1

[3] = target: T3, STK11_C418 (Homo sapiens, UniProt Q15831)
T3 construct: endogenous in cells; host or cells: 22Rv1
T3 sequence (Q15831 1-433): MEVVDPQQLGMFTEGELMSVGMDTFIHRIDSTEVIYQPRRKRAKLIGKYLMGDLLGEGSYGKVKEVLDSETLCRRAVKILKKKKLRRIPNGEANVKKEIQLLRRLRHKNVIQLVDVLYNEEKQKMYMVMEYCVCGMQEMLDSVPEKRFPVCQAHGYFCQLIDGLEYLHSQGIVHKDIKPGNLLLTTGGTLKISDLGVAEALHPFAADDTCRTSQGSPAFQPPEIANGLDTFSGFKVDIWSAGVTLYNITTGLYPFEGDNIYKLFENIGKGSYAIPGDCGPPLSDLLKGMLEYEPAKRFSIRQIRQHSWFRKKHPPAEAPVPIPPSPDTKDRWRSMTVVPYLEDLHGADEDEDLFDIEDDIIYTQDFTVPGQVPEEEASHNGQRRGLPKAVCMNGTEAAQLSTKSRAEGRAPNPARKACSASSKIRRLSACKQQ
Summary of the method: as §1

Row | % engagement LMNA_C570 [1] [%] | % engagement GPAT4_C325 [2] [%] | % engagement STK11_C418 [3] [%] | SMILES
1 | 70.5 | 93.75 | 61.5 | C=CC(=O)N1C[C@H](c2ccc(Br)cc2)[C@H]1C(=O)Nc1cccc2cccnc12 [MY-3B, (2S,3S)-1-acryloyl-3-(4-bromophenyl)-N-(quinolin-8-yl)azetidine-2-carboxamide]
2 | 70.5 | 80 | 66.5 | C=CC(=O)N1C[C@H](c2ccc(Br)cc2)[C@@H]1C(=O)Nc1cccc2cccnc12 [MY-1B, (2R,3S)-1-acryloyl-3-(4-bromophenyl)-N-(quinolin-8-yl)azetidine-2-carboxamide]
3 | 75.5 | 67.25 | 38 | C=CC(=O)N1C[C@H](c2ccc(Br)cc2)[C@H]1C(=O)Nc1cccc2cccnc12 [MY-3A, (2S,3S)-1-acryloyl-3-(4-bromophenyl)-N-(quinolin-8-yl)azetidine-2-carboxamide]
4 | 75 | 83.25 | 83.5 | C=CC(=O)N1C[C@@H](c2ccc(Br)cc2)[C@H]1C(=O)Nc1cccc2cccnc12 [MY-1A, (2S,3R)-1-acryloyl-3-(4-bromophenyl)-N-(quinolin-8-yl)azetidine-2-carboxamide]
